Laboratory results from patent publication US20240158392A1 (Janssen Biotech, Inc., priority 2021, published 2024).

What follows are compounds tested against SIK2 (Homo sapiens, UniProt Q9H0K1) (assay: SIK2 Enzymatic Assay High Version 2 (High ATP)). Conditions: not given.
Type: biochemical
How it was run: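 At room temperature, enzyme (6 nM, 2× final) was preincubated with compound for 30 min, then 6 mM ATP and 400 μM HDAC5tide (both 2× final) were added for 2 h. ADP formed was measured by ADP-Glo Max (2 h reagent, 1 h detection) using luminescence.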

Sequence of SIK2 (Q9H0K1 whole entry, species assumed): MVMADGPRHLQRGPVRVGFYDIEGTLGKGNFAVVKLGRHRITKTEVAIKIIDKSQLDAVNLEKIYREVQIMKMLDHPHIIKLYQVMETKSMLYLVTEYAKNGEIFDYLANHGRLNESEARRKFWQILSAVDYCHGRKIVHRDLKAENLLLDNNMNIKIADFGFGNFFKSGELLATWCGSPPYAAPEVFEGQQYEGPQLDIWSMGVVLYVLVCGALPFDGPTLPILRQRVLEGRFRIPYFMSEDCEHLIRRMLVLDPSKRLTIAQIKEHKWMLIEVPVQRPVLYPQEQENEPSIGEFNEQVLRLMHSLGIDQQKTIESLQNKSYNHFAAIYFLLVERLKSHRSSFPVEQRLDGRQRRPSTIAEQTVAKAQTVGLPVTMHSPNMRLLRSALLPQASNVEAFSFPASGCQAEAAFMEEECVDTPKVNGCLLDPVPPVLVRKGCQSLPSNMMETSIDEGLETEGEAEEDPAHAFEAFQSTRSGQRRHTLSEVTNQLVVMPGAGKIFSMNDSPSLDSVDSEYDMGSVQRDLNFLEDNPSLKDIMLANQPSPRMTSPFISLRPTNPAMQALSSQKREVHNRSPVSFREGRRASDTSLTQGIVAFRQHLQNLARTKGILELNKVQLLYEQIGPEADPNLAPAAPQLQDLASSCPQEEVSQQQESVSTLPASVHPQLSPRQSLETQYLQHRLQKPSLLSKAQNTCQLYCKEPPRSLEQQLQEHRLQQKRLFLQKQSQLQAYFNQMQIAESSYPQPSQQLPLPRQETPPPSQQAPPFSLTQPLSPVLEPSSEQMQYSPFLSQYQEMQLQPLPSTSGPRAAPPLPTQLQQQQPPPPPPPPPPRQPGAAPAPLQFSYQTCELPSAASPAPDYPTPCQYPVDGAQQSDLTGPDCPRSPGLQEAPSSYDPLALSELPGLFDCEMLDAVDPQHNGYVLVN

Question: `Cc1cc(-c2cn3cc(Nc4cc(C)nc(C)n4)nc3cn2)c(OC2C[C@H]3COC[C@@H](C2)N3C)cn1` (stereo partly drawn) [Example 349, N-(2,6-dimethylpyrimidin-4-yl)-6-[2-methyl-5-[[(1R,5S)-9-methyl-3-oxa-9-azabicyclo[3.3.1]nonan-7-yl]oxy]-4-pyridyl]imidazo[1,2-a]pyrazin-2-amine] was tested. Which IC50 did it give?
Answer: < 0.000847 µM

Question: Which IC50 does the source give for `Cc1cc(-c2cn3cc(Nc4cc(C)nc(C)n4)nc3cn2)c(O[C@H]2C[C@H]3COC[C@@H](C2)N3)cn1` [Example 350, N-(2,6-dimethylpyrimidin-4-yl)-6-[2-methyl-5-[[(1R,5S)-3-oxa-9-azabicyclo[3.3.1]nonan-7-yl]oxy]-4-pyridyl]imidazo[1,2-a]pyrazin-2-amine] here?
Answer: 0.0403 µM

Question: Which IC50 does the source give for `CNC(=O)c1ccc(Nc2cc3cc(-c4cc(C)ncc4O[C@H]4C[C@H]5COC[C@@H](C4)N5C(C)=O)ccn3n2)nc1` [Example 356, 6-[[5-[5-[[(1S,5R)-9-acetyl-3-oxa-9-azabicyclo[3.3.1]nonan-7-yl]oxy]-2-methyl-4-pyridyl]pyrazolo[1,5-a]pyridin-2-yl]amino]-N-methyl-pyridine-3-carboxamide] here?
Answer: < 0.000847 µM

Question: With `CNC(=O)c1c(OC)cc(Nc2cc3cc(-c4cc(C)ncc4OC4C[C@H]5COC[C@@H](C4)N5)ccn3n2)cc1OC` (stereo partly drawn) [Example 357, 2,6-dimethoxy-N-methyl-4-[[5-[2-methyl-5-[[(1S,5R)-3-oxa-9-azabicyclo[3.3.1]nonan-7-yl]oxy]-4-pyridyl]pyrazolo[1,5-a]pyridin-2-yl]amino]benzamide] as the compound, how does the IC50 read?
Answer: 0.00101 µM

Question: `CNC(=O)c1c(C)cc(Nc2cc3cc(-c4cc(C)ncc4O[C@H]4C[C@H]5COC[C@@H](C4)N5C(C)=O)ccn3n2)nc1C` [Example 358, 6-[[5-[5-[[(1R,5S,7s)-9-acetyl-3-oxa-9-azabicyclo[3.3.1]nonan-7-yl]oxy]-2-methyl-4-pyridyl]pyrazolo[1,5-a]pyridin-2-yl]amino]-N,2,4-trimethyl-pyridine-3-carboxamide] was tested. Which IC50 did it give?
Answer: 0.00783 µM

Question: For `Cc1cc(-c2ccn3nc(Nc4cc(C)nc(C)n4)cc3c2)c(OC[C@@H]2CN(C)C(=O)N2)cn1` [Example 365, (4S)-4-[[4-[2-[(2,6-dimethylpyrimidin-4-yl)amino]pyrazolo[1,5-a]pyridin-5-yl]-6-methyl-3-pyridyl]oxymethyl]-1-methyl-imidazolidin-2-one], which IC50 is on record?
Answer: < 0.000847 µM

Question: How did the IC50 turn out when `Cc1cc(-c2ccn3nc(Nc4cccc(C(F)(F)F)n4)cc3c2)c(O[C@H]2C[C@H]3COC[C@@H](C2)N3)cn1` [Example 366, 5-[2-methyl-5-[[(1S,5R, 7s)-3-oxa-9-azabicyclo[3.3.1]nonan-7-yl]oxy]-4-pyridyl]-N-[6-(trifluoromethyl)-2-pyridyl]pyrazolo[1,5-a]pyridin-2-amine] was run?
Answer: 0.00156 µM

Question: With `CNC(=O)c1cccc(Nc2cc3cc(-c4cc(C)ncc4O[C@H]4C[C@H]5COC[C@@H](C4)N5)ccn3n2)n1` [Example 367, N-methyl-6-[[5-[2-methyl-5-[[(1S,5R,7s)-3-oxa-9-azabicyclo[3.3.1]nonan-7-yl]oxy]-4-pyridyl]pyrazolo[1,5-a]pyridin-2-yl]amino]pyridine-2-carboxamide] as the compound, how does the IC50 read?
Answer: 0.00681 µM

Question: How did the IC50 turn out when `Cc1cc(-c2ccn3nc(Nc4ccnnc4)cc3c2)c(O[C@H]2C[C@H]3COC[C@@H](C2)N3)cn1` [Example 368, 5-[2-methyl-5-[[(1S,5R,7s)-3-oxa-9-azabicyclo[3.3.1]nonan-7-yl]oxy]-4-pyridyl]-N-pyridazin-4-yl-pyrazolo[1,5-a]pyridin-2-amine] was run?
Answer: < 0.000847 µM

Question: For `Cc1cc(-c2ccn3nc(Nc4ccc(C(=O)NCCO)cn4)cc3c2)c(O[C@H]2C[C@H]3COC[C@@H](C2)N3)cn1` [Example 369, N-(2-hydroxyethyl)-6-[[5-[2-methyl-5-[[(1S,5R,7s)-3-oxa-9-azabicyclo[3.3.1]nonan-7-yl]oxy]-4-pyridyl]pyrazolo[1,5-a]pyridin-2-yl]amino]pyridine-3-carboxamide], which IC50 is on record?
Answer: 0.00164 µM

Question: Which IC50 does the source give for `Cc1cc(-c2ccn3nc(Nc4ccc(C(=O)O)cn4)cc3c2)c(O[C@H]2C[C@H]3COC[C@@H](C2)N3)cn1` [Example 370, 6-[[5-[2-methyl-5-[[(1S,5R,7s)-3-oxa-9-azabicyclo[3.3.1]nonan-7-yl]oxy]-4-pyridyl]pyrazolo[1,5-a]pyridin-2-yl]amino]pyridine-3-carboxylic Acid] here?
Answer: < 0.000847 µM

Question: How did the IC50 turn out when `Cc1cc(-c2ccn3nc(Nc4ccc(C(=O)NCC(C)(C)O)cn4)cc3c2)c(O[C@H]2C[C@H]3COC[C@@H](C2)N3)cn1` [Example 371, N-(2-hydroxy-2-methyl-propyl)-6-[[5-[2-methyl-5-[[(1S,5R,7s)-3-oxa-9-azabicyclo[3.3.1]nonan-7-yl]oxy]-4-pyridyl]pyrazolo[1,5-a]pyridin-2-yl]amino]pyridine-3-carboxamide] was run?
Answer: < 0.000847 µM

Question: Which IC50 does the source give for `Cc1cc(-c2ccn3nc(Nc4ccnc(C)n4)cc3c2)c(O[C@H]2C[C@H]3COC[C@@H](C2)N3)cn1` [Example 372, 5-[2-methyl-5-[[(1S,5R,7s)-3-oxa-9-azabicyclo[3.3.1]nonan-7-yl]oxy]-4-pyridyl]-N-(2-methylpyrimidin-4-yl)pyrazolo[1,5-a]pyridin-2-amine] here?
Answer: < 0.000847 µM

Question: With `Cc1cc(-c2ccn3nc(Nc4ccc(C(=O)NCC5CCOCC5)cn4)cc3c2)c(O[C@H]2C[C@H]3COC[C@@H](C2)N3)cn1` [Example 373, 6-[[5-[2-methyl-5-[[(1R,5S,7s)-3-oxa-9-azabicyclo[3.3.1]nonan-7-yl]oxy]-4-pyridyl]pyrazolo[1,5-a]pyridin-2-yl]amino]-N-(tetrahydropyran-4-ylmethyl)pyridine-3-carboxamide] as the compound, how does the IC50 read?
Answer: < 0.000847 µM

Question: With `Cc1cc(-c2ccn3nc(Nc4ccc(C(F)(F)F)cn4)cc3c2)c(O[C@H]2C[C@H]3COC[C@@H](C2)N3)cn1` [Example 374, 5-[2-methyl-5-[[(1S,5R,7s)-3-oxa-9-azabicyclo[3.3.1]nonan-7-yl]oxy]-4-pyridyl]-N-[5-(trifluoromethyl)-2-pyridyl]pyrazolo[1,5-a]pyridin-2-amine] as the compound, how does the IC50 read?
Answer: < 0.000847 µM

Question: `Cc1cc(-c2ccn3nc(Nc4cnc(C(F)(F)F)cn4)cc3c2)c(O[C@H]2C[C@H]3COC[C@@H](C2)N3)cn1` [Example 375, 5-(5-(((1R,5S,7s)-3-oxa-9-azabicyclo[3.3.1]nonan-7-yl)oxy)-2-methylpyridin-4-yl)-N-(5-(trifluoromethyl)pyrazin-2-yl)pyrazolo[1,5-a]pyridin-2-amine] was tested. Which IC50 did it give?
Answer: 0.00115 µM

Question: For `Cc1cc(-c2ccn3nc(Nc4ccc(C(N)=O)cn4)cc3c2)c(O[C@H]2C[C@H]3COC[C@@H](C2)N3)cn1` [Example 376, 6-[[5-[2-methyl-5-[[(1R,5S,7s)-3-oxa-9-azabicyclo[3.3.1]nonan-7-yl]oxy]-4-pyridyl]pyrazolo[1,5-a]pyridin-2-yl]amino]pyridine-3-carboxamide], which IC50 is on record?
Answer: 0.00136 µM

Question: `CCCNC(=O)c1ccc(Nc2cc3cc(-c4cc(C)ncc4O[C@H]4C[C@H]5COC[C@@H](C4)N5)ccn3n2)nc1` [Example 377, 6-[[5-[2-methyl-5-[[(1R,5S,7s)-3-oxa-9-azabicyclo[3.3.1]nonan-7-yl]oxy]-4-pyridyl]pyrazolo[1,5-a]pyridin-2-yl]amino]-N-propyl-pyridine-3-carboxamide] was tested. Which IC50 did it give?
Answer: < 0.000847 µM

Question: For `Cc1cc(-c2ccn3nc(Nc4cc(C(F)(F)F)ccn4)cc3c2)c(O[C@H]2C[C@H]3COC[C@@H](C2)N3)cn1` [Example 378, 5-[2-methyl-5-[[(1S,5R,7s)-3-oxa-9-azabicyclo[3.3.1]nonan-7-yl]oxy]-4-pyridyl]-N-[4-(trifluoromethyl)-2-pyridyl]pyrazolo[1,5-a]pyridin-2-amine], which IC50 is on record?
Answer: < 0.000847 µM

Question: `Cc1cc(-c2ccn3nc(Nc4cc(C(F)(F)F)n(C)n4)cc3c2)c(O[C@H]2C[C@H]3COC[C@@H](C2)N3)cn1` [Example 379, 5-[2-methyl-5-[[(1S,5R,7s)-3-oxa-9-azabicyclo[3.3.1]nonan-7-yl]oxy]-4-pyridyl]-N-[1-methyl-5-(trifluoromethyl)pyrazol-3-yl]pyrazolo[1,5-a]pyridin-2-amine] was tested. Which IC50 did it give?
Answer: 0.00125 µM

Question: With `Cc1cc(-c2ccn3nc(Nc4cn(C)nn4)cc3c2)c(O[C@H]2C[C@H]3COC[C@@H](C2)N3)cn1` [Example 380, 5-[2-methyl-5-[[(1R,5S,7s)-3-oxa-9-azabicyclo[3.3.1]nonan-7-yl]oxy]-4-pyridyl]-N-(1-methyltriazol-4-yl)pyrazolo[1,5-a]pyridin-2-amine] as the compound, how does the IC50 read?
Answer: < 0.000847 µM

Same assay, conditions: enzyme 6 nM, 6 mM ATP and 400 μM HDAC5tide (each 2× final concentration); 30 minutes pre-incubation, 2 hours; ADP-Glo Max luminescence; read-out: SIK2 high ATP IC50 (μM) (Test Example 2)

Question: For `Cc1cc(-c2ccn3nc(Nc4ccc(C(=O)NC(C)C)c(C)c4)cc3c2)c(OCC(C)(C)O)cn1` [Example 345, 4-[[5-[5-(2-hydroxy-2-methyl-propoxy)-2-methyl-4-pyridyl]pyrazolo[1,5-a]pyridin-2-yl]amino]-N-isopropyl-2-methyl-benzamide], which IC50 is on record?
Answer: 0.0306 µM

Question: For `Cc1cc(-c2ccn3nc(Nc4cc(C)nc(C)n4)cc3c2)c(OCC(C)(C)N)cn1` [Example 359, 5-[5-(2-amino-2-methyl-propoxy)-2-methyl-4-pyridyl]-N-(2,6-dimethylpyrimidin-4-yl)pyrazolo[1,5-a]pyridin-2-amine], which IC50 is on record?
Answer: 0.0271 µM

Question: Which IC50 does the source give for `CC(=O)NC(C)(C)COc1cnc(C)cc1-c1ccn2nc(Nc3cc(C)nc(C)n3)cc2c1` [Example 360, N-[2-[[4-[2-[(2,6-dimethylpyrimidin-4-yl)amino]pyrazolo[1,5-a]pyridin-5-yl]-6-methyl-3-pyridyl]oxy]-1,1-dimethyl-ethyl]acetamide] here?
Answer: 0.0058 µM

Question: For `Cc1cc(-c2ccn3nc(Nc4cc(C)nc(C)n4)cc3c2)c(OCC(C)(C)NS(C)(=O)=O)cn1` [Example 361, N-[2-[[4-[2-[(2,6-dimethylpyrimidin-4-yl)amino]pyrazolo[1,5-a]pyridin-5-yl]-6-methyl-3-pyridyl]oxy]-1,1-dimethyl-ethyl]methanesulfonamide], which IC50 is on record?
Answer: 0.00703 µM

Question: For `CC#Cc1cc(-c2ccn3nc(Nc4cc(C)nc(C)n4)cc3c2)c(N[C@H]2CC[C@@H](O)CC2)cn1` [Example 362, 4-[[4-[2-[(2,6-dimethylpyrimidin-4-yl)amino]pyrazolo[1,5-a]pyridin-5-yl]-6-prop-1-ynyl-3-pyridyl]amino]cyclohexanol], which IC50 is on record?
Answer: 0.016 µM
